Data taken from patent US20200239530A1, “COMPOUNDS AND METHODS OF MODULATING PROTEIN DEGRADATION” (Vividion Therapeutics, Inc., priority 2017, published 2020).
Like-named read-outs stand apart in the source and are kept apart here.

Experiments:
Assay in all cases: Cysteine liganding, probe competition
Type in all cases: binding
UniProt O14543 = target: T1, UniProt O14543 (Homo sapiens, UniProt O14543)
T1 construct: 200 μL of lysate containing 5 mg/ml proteome was treated with 2 μL of 100× compound stock; endogenous in cells
T1 sequence (O14543 whole entry, change not shown): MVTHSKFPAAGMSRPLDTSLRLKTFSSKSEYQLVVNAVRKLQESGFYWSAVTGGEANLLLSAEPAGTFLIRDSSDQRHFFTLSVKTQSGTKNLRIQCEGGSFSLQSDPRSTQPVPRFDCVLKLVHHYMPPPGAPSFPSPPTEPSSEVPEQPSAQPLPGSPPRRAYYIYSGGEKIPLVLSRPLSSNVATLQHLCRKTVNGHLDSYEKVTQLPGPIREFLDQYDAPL
From the text: (§1) The following 96-well sample prep protocol was used for sample preparation.

UniProt O60683 = target: T2, UniProt O60683 (Homo sapiens, UniProt O60683)
T2 construct: 200 μL of lysate containing 5 mg/ml proteome was treated with 2 μL of 100× compound stock; endogenous in cells
T2 sequence (O60683 whole entry, change not shown): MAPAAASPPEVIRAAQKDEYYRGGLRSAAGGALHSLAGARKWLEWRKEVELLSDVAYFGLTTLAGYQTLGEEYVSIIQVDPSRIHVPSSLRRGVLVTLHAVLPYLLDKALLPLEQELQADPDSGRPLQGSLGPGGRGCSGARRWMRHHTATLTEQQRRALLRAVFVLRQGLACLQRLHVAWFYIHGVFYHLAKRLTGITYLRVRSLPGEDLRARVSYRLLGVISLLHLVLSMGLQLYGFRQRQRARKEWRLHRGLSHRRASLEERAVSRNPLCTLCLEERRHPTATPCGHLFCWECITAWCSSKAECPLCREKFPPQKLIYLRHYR
From the text: as §1

UniProt Q6IQ16 = target: T3, UniProt Q6IQ16 (Homo sapiens, UniProt Q6IQ16)
T3 construct: 200 μL of lysate containing 5 mg/ml proteome was treated with 2 μL of 100× compound stock; endogenous in cells
T3 sequence (Q6IQ16 1-392): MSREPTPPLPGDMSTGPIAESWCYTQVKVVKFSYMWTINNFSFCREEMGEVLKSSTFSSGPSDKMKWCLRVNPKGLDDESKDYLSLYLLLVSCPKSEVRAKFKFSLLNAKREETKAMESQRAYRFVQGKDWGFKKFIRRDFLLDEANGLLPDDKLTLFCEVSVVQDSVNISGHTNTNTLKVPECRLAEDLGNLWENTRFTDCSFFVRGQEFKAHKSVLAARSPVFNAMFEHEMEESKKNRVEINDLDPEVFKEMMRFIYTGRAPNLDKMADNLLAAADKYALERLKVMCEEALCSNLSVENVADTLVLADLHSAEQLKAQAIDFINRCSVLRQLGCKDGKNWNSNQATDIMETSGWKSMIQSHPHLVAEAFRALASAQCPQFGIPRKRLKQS
From the text: as §1

UniProt Q6ZMU5 = target: T4, UniProt Q6ZMU5 (Homo sapiens, UniProt Q6ZMU5)
T4 construct: 200 μL of lysate containing 5 mg/ml proteome was treated with 2 μL of 100× compound stock; endogenous in cells
T4 sequence (Q6ZMU5 1-477): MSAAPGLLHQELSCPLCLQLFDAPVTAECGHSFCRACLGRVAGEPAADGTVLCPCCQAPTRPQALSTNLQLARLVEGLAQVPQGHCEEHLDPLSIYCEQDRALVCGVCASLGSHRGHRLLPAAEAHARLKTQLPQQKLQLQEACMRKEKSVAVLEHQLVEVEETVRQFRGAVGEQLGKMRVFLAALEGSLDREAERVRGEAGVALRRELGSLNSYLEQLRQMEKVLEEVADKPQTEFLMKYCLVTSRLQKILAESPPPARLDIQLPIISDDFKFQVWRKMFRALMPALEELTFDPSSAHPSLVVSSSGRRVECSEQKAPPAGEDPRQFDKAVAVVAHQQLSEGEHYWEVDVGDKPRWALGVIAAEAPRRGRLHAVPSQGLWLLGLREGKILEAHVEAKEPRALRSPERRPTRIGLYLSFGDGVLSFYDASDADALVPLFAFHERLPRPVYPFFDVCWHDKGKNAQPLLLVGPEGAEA
From the text: as §1

UniProt Q9BR09 = target: T5, UniProt Q9BR09 (Homo sapiens, UniProt Q9BR09); details: read-out: percent inhibition
T5 construct: Cells were resuspended in cold PBS on ice and sonicated with a probe sonicator to achieve lysis; endogenous in cells
T5 sequence (Q9BR09 whole entry, change not shown): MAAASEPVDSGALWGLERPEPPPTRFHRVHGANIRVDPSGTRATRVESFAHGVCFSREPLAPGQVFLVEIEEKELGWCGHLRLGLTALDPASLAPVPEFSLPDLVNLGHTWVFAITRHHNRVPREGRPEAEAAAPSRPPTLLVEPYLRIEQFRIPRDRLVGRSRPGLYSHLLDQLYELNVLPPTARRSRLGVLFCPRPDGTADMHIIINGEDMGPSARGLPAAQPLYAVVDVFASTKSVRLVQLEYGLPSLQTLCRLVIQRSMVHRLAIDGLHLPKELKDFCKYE
From the text: as §1

UniProt Q6ZNB6 = target: T6, UniProt Q6ZNB6 (Homo sapiens, UniProt Q6ZNB6); details: for percent inhibition: 100 uM
T6 construct: Cells were resuspended in cold PBS on ice and sonicated with a probe sonicator to achieve lysis; endogenous in cells
T6 sequence (Q6ZNB6 1-911): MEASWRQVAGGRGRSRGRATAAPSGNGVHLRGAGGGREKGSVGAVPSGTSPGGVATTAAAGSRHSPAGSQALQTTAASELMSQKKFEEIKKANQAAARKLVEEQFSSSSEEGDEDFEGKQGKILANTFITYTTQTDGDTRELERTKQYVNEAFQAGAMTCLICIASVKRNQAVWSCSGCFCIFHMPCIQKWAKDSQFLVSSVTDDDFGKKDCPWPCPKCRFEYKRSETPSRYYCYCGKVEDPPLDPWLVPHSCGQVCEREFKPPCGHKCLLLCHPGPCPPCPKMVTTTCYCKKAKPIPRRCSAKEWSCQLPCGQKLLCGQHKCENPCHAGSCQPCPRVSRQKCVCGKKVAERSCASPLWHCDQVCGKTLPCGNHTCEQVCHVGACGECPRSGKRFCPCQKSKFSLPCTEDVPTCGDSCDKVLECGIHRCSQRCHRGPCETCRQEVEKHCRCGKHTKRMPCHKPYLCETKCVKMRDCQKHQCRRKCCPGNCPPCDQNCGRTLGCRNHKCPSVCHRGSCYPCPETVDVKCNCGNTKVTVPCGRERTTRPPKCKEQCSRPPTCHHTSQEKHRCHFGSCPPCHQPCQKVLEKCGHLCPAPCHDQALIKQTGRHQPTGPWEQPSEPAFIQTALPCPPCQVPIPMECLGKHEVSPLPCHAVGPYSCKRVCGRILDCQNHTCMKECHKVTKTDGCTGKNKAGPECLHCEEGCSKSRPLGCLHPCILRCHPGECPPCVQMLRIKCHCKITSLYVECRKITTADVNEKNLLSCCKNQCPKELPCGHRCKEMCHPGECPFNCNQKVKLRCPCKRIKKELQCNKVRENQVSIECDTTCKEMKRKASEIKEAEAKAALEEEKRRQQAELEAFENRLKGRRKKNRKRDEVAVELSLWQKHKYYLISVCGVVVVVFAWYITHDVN
From the text: as §1

[1] = read-out: KB02_100 uM_percent_inhibition
[2] = read-out: KB05_100 uM_percent_inhibition

inhibition at 100 µM (UniProt O60683; [2])	percent_inhibition (UniProt Q6IQ16; 500 uM)	inhibition at 500 µM (UniProt Q6IQ16; 500 uM, read-out: percent_inhibition)	KB05_100 uM_percent_inhibition (UniProt Q6ZMU5; 100 uM)	inhibition at 100 µM (UniProt Q6ZMU5; [2])	inhibition at 100 µM (UniProt Q6ZNB6; read-out: percent inhibition)	SMILES	inhibition at 100 µM (UniProt O14543; read-out: percent_inhibition)	inhibition at 100 µM (UniProt O60683; [1])	inhibition at 100 µM (UniProt Q6IQ16; read-out: percent_inhibition)	inhibition at 100 µM (UniProt Q6ZMU5; [1])	inhibition at 500 µM (UniProt Q9BR09)	percent inhibition (UniProt Q6ZNB6)	percent_inhibition (UniProt O14543; 100 uM)
–	–	–	–	–	–	COc1ccc2c(c1)CCCN2C(=O)CCl [KB02]	40%	51%	16%	36%	32%	–	–
37%	57%	44%	8%	6%	21%	C=CC(=O)N(c1ccccc1)c1ccc(Br)cc1 [KB05]	–	–	20%	–	3%	36%	–
–	–	–	–	–	–	O=C(CCl)Nc1cc(C(F)(F)F)cc(C(F)(F)F)c1 [KBO3]	–	–	–	–	–	20%	91%
